Assay results as given in PubChem BioAssay (NCI).
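Following 48 hours of exposure in 96-well plates, responses at five concentrations were used to interpolate endpoints linearly. Definition used: TGI = concentration required for complete inhibition of growth.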

Assays:
Assay in all cases: NCI-60 cell line screen, 48 h
[1] = system: SK-MEL-2 melanoma
[2] = system: 786-0 renal
[3] = system: HOP-62 NSCLC
[4] = system: KM12 colon
[5] = system: EKVX NSCLC
[6] = system: OVCAR-5 ovarian
[7] = system: SF-539 CNS
[8] = system: HS 578T breast
[9] = system: MALME-3M melanoma
[10] = system: SNB-19 CNS
[11] = system: UACC-257 melanoma
[12] = system: SNB-75 CNS
[13] = system: SN12C renal
[14] = system: LOX IMVI melanoma
[15] = system: SR leukemia
[16] = system: CCRF-CEM leukemia
[17] = system: M14 melanoma
[18] = system: UO-31 renal
[19] = system: HOP-92 NSCLC
[20] = system: OVCAR-4 ovarian
[21] = system: OVCAR-8 ovarian
[22] = system: HL-60(TB) leukemia
[23] = system: NCI-H460 lung
[24] = system: K-562 leukemia
[25] = system: BT-549 breast
[26] = system: SF-268 CNS
[27] = system: A549 NSCLC
[28] = system: NCI/ADR-RES ovarian
[29] = system: SF-295 CNS
[30] = system: HCT-15 colon
[31] = system: MDA-N
[32] = system: OVCAR-3 ovarian
[33] = system: PC-3 prostate
[34] = system: MOLT-4 leukemia
[35] = system: A498 renal
[36] = system: ACHN renal
[37] = system: RPMI-8226 leukemia
[38] = system: U251 CNS
[39] = system: MDA-MB-231 breast
[40] = system: HCT-116 colon
[41] = system: SW-620 colon
[42] = system: COLO 205 colon
[43] = system: NCI-H226 lung
[44] = system: HT29 colon
[45] = system: HCC-2998 colon
[46] = system: NCI-H23 lung
[47] = system: NCI-H522 lung
[48] = system: SK-MEL-28 melanoma
[49] = system: DU-145 prostate
[50] = system: T-47D breast
[51] = system: SK-OV-3 ovarian
[52] = system: UACC-62 melanoma
[53] = system: IGROV1 ovarian
[54] = system: RXF 393 renal
[55] = system: CAKI-1 renal
[56] = system: MDA-MB-435
[57] = system: MCF7 breast
[58] = system: SK-MEL-5 melanoma
[59] = system: TK-10 renal

Question: How did the TGI [1] turn out when `O=[N+]([O-])C(=C(N1CCOCC1)N1CCOCC1)/C(Cl)=C(\Cl)Br` was run?
Answer: Its TGI is 44.8 µM.

Question: And the TGI [2]?
Answer: The TGI was 58.4 µM.

Question: And the TGI [3]?
Answer: Its TGI is > 100 µM.

Question: What about the TGI [4] of the same compound?
Answer: The TGI was 76.3 µM.

Question: And the TGI [5]?
Answer: Its TGI is 37.9 µM.

Question: What about the TGI [6] of the same compound?
Answer: The TGI was 32.4 µM.

Question: And the TGI [7]?
Answer: Its TGI is 57.9 µM.

Question: What about the TGI [8] of the same compound?
Answer: Its TGI is > 100 µM.

Question: What about the TGI [9] of the same compound?
Answer: The TGI was 30.5 µM.

Question: What about the TGI [10] of the same compound?
Answer: The TGI was > 100 µM.

Question: And the TGI [11]?
Answer: Its TGI is 31.8 µM.

Question: And the TGI [12]?
Answer: Its TGI is 33.2 µM.

Question: And the TGI [13]?
Answer: The TGI was 31.7 µM.

Question: And the TGI [14]?
Answer: Its TGI is 41.1 µM.

Question: And the TGI [15]?
Answer: The TGI was 37.1 µM.

Question: What about the TGI [16] of the same compound?
Answer: The TGI was 9.49 µM.

Question: And the TGI [17]?
Answer: The TGI was 28.3 µM.

Question: What about the TGI [18] of the same compound?
Answer: Its TGI is 43.4 µM.

Question: And the TGI [19]?
Answer: The TGI was 31 µM.

Question: And the TGI [20]?
Answer: The TGI was 39.5 µM.

Question: And the TGI [21]?
Answer: Its TGI is 64 µM.

Question: What about the TGI [22] of the same compound?
Answer: Its TGI is 16.9 µM.

Question: And the TGI [23]?
Answer: The TGI was > 100 µM.

Question: What about the TGI [24] of the same compound?
Answer: The TGI was 60.2 µM.

Question: And the TGI [25]?
Answer: Its TGI is 28.8 µM.

Question: And the TGI [26]?
Answer: Its TGI is 81.3 µM.

Question: And the TGI [27]?
Answer: Its TGI is > 100 µM.

Question: And the TGI [28]?
Answer: The TGI was 52.9 µM.

Question: And the TGI [29]?
Answer: Its TGI is > 100 µM.

Question: And the TGI [30]?
Answer: Its TGI is 28.9 µM.

Question: What about the TGI [31] of the same compound?
Answer: Its TGI is 70.6 µM.

Question: What about the TGI [32] of the same compound?
Answer: Its TGI is 28.5 µM.

Question: What about the TGI [33] of the same compound?
Answer: Its TGI is > 100 µM.

Question: And the TGI [34]?
Answer: Its TGI is 33.9 µM.

Question: And the TGI [35]?
Answer: Its TGI is > 100 µM.

Question: And the TGI [36]?
Answer: The TGI was 54 µM.

Question: And the TGI [37]?
Answer: The TGI was 33.5 µM.

Question: What about the TGI [38] of the same compound?
Answer: Its TGI is 39.9 µM.

Question: What about the TGI [39] of the same compound?
Answer: The TGI was 31.8 µM.

Question: What about the TGI [40] of the same compound?
Answer: Its TGI is 30.8 µM.

Question: And the TGI [41]?
Answer: The TGI was 28.8 µM.

Question: And the TGI [42]?
Answer: Its TGI is 29.6 µM.

Question: What about the TGI [43] of the same compound?
Answer: Its TGI is 60.5 µM.

Question: And the TGI [44]?
Answer: Its TGI is 44.9 µM.

Question: What about the TGI [45] of the same compound?
Answer: The TGI was > 100 µM.

Question: And the TGI [46]?
Answer: Its TGI is 34.1 µM.

Question: And the TGI [47]?
Answer: Its TGI is 6.71 µM.

Question: What about the TGI [48] of the same compound?
Answer: The TGI was 33.8 µM.

Question: What about the TGI [49] of the same compound?
Answer: The TGI was > 100 µM.

Question: And the TGI [50]?
Answer: Its TGI is 32.1 µM.

Question: For `CC1=C(c2ccccc2)NC(=S)C(C)C(c2ccccc2)=N1` (configuration not stated), which TGI [2] is on record?
Answer: The TGI was > 100 µM.

Question: What about the TGI [3] of the same compound?
Answer: The TGI was > 100 µM.

Question: What about the TGI [4] of the same compound?
Answer: The TGI was > 100 µM.

Question: What about the TGI [51] of the same compound?
Answer: Its TGI is > 100 µM.

Question: And the TGI [5]?
Answer: Its TGI is > 100 µM.

Question: What about the TGI [6] of the same compound?
Answer: Its TGI is > 100 µM.

Question: And the TGI [7]?
Answer: Its TGI is 30.9 µM.

Question: What about the TGI [9] of the same compound?
Answer: Its TGI is > 100 µM.

Question: And the TGI [10]?
Answer: The TGI was > 100 µM.

Question: And the TGI [52]?
Answer: Its TGI is > 100 µM.

Question: What about the TGI [11] of the same compound?
Answer: Its TGI is > 100 µM.

Question: What about the TGI [12] of the same compound?
Answer: The TGI was > 100 µM.

Question: And the TGI [13]?
Answer: The TGI was > 100 µM.

Question: What about the TGI [14] of the same compound?
Answer: Its TGI is > 100 µM.

Question: What about the TGI [15] of the same compound?
Answer: The TGI was > 100 µM.

Question: What about the TGI [16] of the same compound?
Answer: The TGI was 47.1 µM.

Question: What about the TGI [53] of the same compound?
Answer: Its TGI is > 100 µM.

Question: What about the TGI [18] of the same compound?
Answer: Its TGI is > 100 µM.

Question: What about the TGI [54] of the same compound?
Answer: Its TGI is 61.6 µM.

Question: What about the TGI [20] of the same compound?
Answer: Its TGI is > 100 µM.

Question: And the TGI [21]?
Answer: The TGI was > 100 µM.

Question: And the TGI [22]?
Answer: Its TGI is 35.1 µM.

Question: What about the TGI [55] of the same compound?
Answer: Its TGI is > 100 µM.

Question: What about the TGI [23] of the same compound?
Answer: The TGI was > 100 µM.

Question: What about the TGI [24] of the same compound?
Answer: Its TGI is 28.6 µM.

Question: And the TGI [25]?
Answer: The TGI was > 100 µM.

Question: And the TGI [26]?
Answer: The TGI was > 100 µM.

Question: What about the TGI [27] of the same compound?
Answer: Its TGI is > 100 µM.

Question: And the TGI [28]?
Answer: Its TGI is > 100 µM.

Question: What about the TGI [56] of the same compound?
Answer: Its TGI is 69.3 µM.

Question: What about the TGI [29] of the same compound?
Answer: Its TGI is > 100 µM.

Question: What about the TGI [30] of the same compound?
Answer: The TGI was > 100 µM.

Question: And the TGI [31]?
Answer: Its TGI is 46.8 µM.

Question: What about the TGI [34] of the same compound?
Answer: The TGI was 54.1 µM.

Question: What about the TGI [35] of the same compound?
Answer: Its TGI is > 100 µM.

Question: What about the TGI [57] of the same compound?
Answer: Its TGI is > 100 µM.

Question: What about the TGI [36] of the same compound?
Answer: Its TGI is > 100 µM.

Question: What about the TGI [37] of the same compound?
Answer: The TGI was 57.5 µM.

Question: What about the TGI [38] of the same compound?
Answer: The TGI was > 100 µM.

Question: What about the TGI [39] of the same compound?
Answer: Its TGI is > 100 µM.

Question: And the TGI [40]?
Answer: Its TGI is > 100 µM.

Question: What about the TGI [41] of the same compound?
Answer: Its TGI is > 100 µM.

Question: What about the TGI [42] of the same compound?
Answer: Its TGI is > 100 µM.

Question: And the TGI [43]?
Answer: Its TGI is > 100 µM.

Question: What about the TGI [44] of the same compound?
Answer: Its TGI is > 100 µM.

Question: And the TGI [58]?
Answer: The TGI was 82.9 µM.

Question: What about the TGI [59] of the same compound?
Answer: Its TGI is > 100 µM.

Question: What about the TGI [45] of the same compound?
Answer: Its TGI is > 100 µM.

Question: What about the TGI [46] of the same compound?
Answer: The TGI was 70.4 µM.

Question: What about the TGI [48] of the same compound?
Answer: Its TGI is > 100 µM.

Question: What about the TGI [49] of the same compound?
Answer: The TGI was > 100 µM.

Question: And the TGI [50]?
Answer: Its TGI is > 100 µM.
